Reference: US20240360146A1, “BRUTON'S TYROSINE KINASE AND MUTANT DEGRADER, COMPOSITION AND APPLICATION THEREOF” (HANGZHOU HEALZEN THERAPEUTICS CO., LTD., priority 2021, published 2024)

Biological target: T1, BTK (Homo sapiens, UniProt Q06187)
T1 construct: endogenous in cells; host or cells: Mino cells
Experiment: BTK degradation activity test in Mino cells
Type: cell-based
Settings: 16 h incubation, Western blot or Elisa
Protocol: Mino cell line cells were seeded at 500,000 to 1,000,000 cells/well in a 6-well plate. The compounds were diluted to different concentrations and added to the plate, and after 16 h of incubation, cells were harvested. After lysing the cells, the total protein concentration in each well was determined using the BCA method. The amount of BTK was determined using Western blot or Elisa method. The amount of undegraded BTK protein at each drug concentration was compared with the amount of BTK protein in the blank control group to calculate the degradation rate. The degradation curve was drawn based on the degradation rate at each concentration, and the half degradation concentration (DC50) was calculated by fitting.

T1 sequence (Q06187 whole entry): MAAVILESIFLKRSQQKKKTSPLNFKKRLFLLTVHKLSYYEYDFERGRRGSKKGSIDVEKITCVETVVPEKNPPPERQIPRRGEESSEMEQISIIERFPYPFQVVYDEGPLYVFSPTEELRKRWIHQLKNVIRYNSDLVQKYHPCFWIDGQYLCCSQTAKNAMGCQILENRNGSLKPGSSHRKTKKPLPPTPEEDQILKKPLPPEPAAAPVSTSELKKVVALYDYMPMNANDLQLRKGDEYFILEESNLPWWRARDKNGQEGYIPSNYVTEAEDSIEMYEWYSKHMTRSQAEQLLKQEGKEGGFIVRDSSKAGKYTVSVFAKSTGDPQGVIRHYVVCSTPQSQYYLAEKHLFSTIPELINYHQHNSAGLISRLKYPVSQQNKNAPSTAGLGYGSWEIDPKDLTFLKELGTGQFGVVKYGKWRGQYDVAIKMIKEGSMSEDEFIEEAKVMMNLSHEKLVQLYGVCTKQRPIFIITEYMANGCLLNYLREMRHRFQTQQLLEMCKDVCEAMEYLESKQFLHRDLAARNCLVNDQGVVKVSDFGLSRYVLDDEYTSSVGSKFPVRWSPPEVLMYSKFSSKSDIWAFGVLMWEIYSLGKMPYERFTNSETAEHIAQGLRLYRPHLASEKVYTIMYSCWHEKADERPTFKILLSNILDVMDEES

Row | SMILES | DC50 [nM]
1 | NC(=O)c1ncc(N2CCCC(N3CCN(C4COC4)C3=O)C2)nc1Nc1ccc(N2CCN(C3CN(c4ccc5c(c4)C(=O)N(C4CCC(=O)NC4=O)C5=O)C3)CC2)cc1 (centres unmarked) [Compound 015, 3-((4-(4-(1-(2-(2,6-dioxopiperidin-3-yl)-1,3-dioxoisoindol-5-yl)azetidin-3-yl)piperazin-1-yl)phenyl)amino)-5-(3-(3-(oxetan-3-yl)-2-oxoimidazolin-1-yl)piperidin-1-yl) pyrazin-2-carboxamide] | < 1
2 | NC(=O)c1ncc(N2CCCC(N3CCN(C4COC4)C3=O)C2)nc1Nc1ccc(N2CCN(CC3CN(c4ccc5c(c4)C(=O)N(C4CCC(=O)NC4=O)C5=O)C3)CC2)cc1 (centres unmarked) [Compound 016, 3-((4-(4-((1-(2-(2,6-dioxopiperidin-3-yl)-1,3-dioxoisoindol-5-yl)azetidine-3-yl)methyl)piperazin-1-yl)phenyl)amino)-5-(3-(3-(oxetan-3-yl)-2-oxoimidazolin-1-yl)piperidin-1-yl)pyrazin-2-carboxamide] | < 1
3 | NC(=O)c1ncc(N2CCCC(N3CCN(C4COC4)C3=O)C2)nc1Nc1ccc(N2CCC3(CC2)CCN(c2ccc4c(c2)C(=O)N(C2CCC(=O)NC2=O)C4=O)CC3)cc1 (centres unmarked) [Compound 017, 3-((4-(9-(2-(2,6-dioxopiperidin-3-yl)-1,3-dioxoisoindol-5-yl)-3,9-diazaspirocyclo[5.5]undec-3-yl)phenyl)amino)-5-(3-(3-(oxetan-3-yl)-2-oxoimidazolin-1-yl)piperidin-1-yl)pyrazin-2-carboxamide] | < 1
4 | NC(=O)c1ncc(N2CCCC(N3CCN(C4COC4)C3=O)C2)nc1Nc1ccc(N2CC3(C2)CN(c2ccc4c(c2)C(=O)N(C2CCC(=O)NC2=O)C4=O)C3)cc1 (centres unmarked) [Compound 018, 3-((4-(6-(2-(2,6-dioxopiperidin-3-yl)-1,3-dioxoisoindol-5-yl)-2,6-diazaspirocyclo[3.3]heptan-2-yl)phenyl)amino)-5-(3-(3-(oxetan-3-yl)-2-oxoimidazolin-1-yl)piperidin-1-yl)pyrazin-2-carboxamide] | < 1
5 | NC(=O)c1ncc(N2CCCC(N3CCN(C4COC4)C3=O)C2)nc1Nc1ccc(N2CCC3(CC2)CC(N2CCN(c4ccc5c(c4)C(=O)N(C4CCC(=O)NC4=O)C5=O)CC2)C3)cc1 (centres unmarked) [Compound 019] | > 1
6 | CC1(c2ccc(Nc3nc(N4CCCC(N5CCN(C6CCCC6)C5=O)C4)cnc3C(N)=O)cc2)CCN(C2CN(c3cccc4c3C(=O)N(C3CCC(=O)NC3=O)C4=O)C2)CC1 (centres unmarked) [Compound 020, 5-(3-(3-cyclopentyl-2-oxoimidazolin-1-yl)piperidin-1-yl)-3-((4-(1-(1-(2-(2,6-dioxopiperidin-3-yl)-1,3-dioxoisoindol-4-yl)azetidin-3-yl)-4-methylpiperidin-4-yl)phenyl)amino)pyrazin-2-carboxamide] | < 1
7 | CC1(c2ccc(Nc3nc(N4CCCC(N5CCN(C6CCCC6)C5=O)C4)cnc3C(N)=O)cc2)CCN(C2CN(c3ccc(NC4CCC(=O)NC4=O)cn3)C2)CC1 (centres unmarked) [Compound 021] | < 1
8 | Cn1c(=O)n(C2CCC(=O)NC2=O)c2cccc(N3CC(N4CCC(C)(c5ccc(Nc6nc(N7CCCC(N8CCN(C9CCCC9)C8=O)C7)cnc6C(N)=O)cc5)CC4)C3)c21 (centres unmarked) [Compound 022] | < 1
9 | CC1(c2ccc(Nc3nc(N4CCCC(N5CCN(C6CCCC6)C5=O)C4)cnc3C(N)=O)cc2)CCN(C2CN(c3ccc4c(=O)n(C5CCC(=O)NC5=O)ccc4c3)C2)CC1 (centres unmarked) [Compound 023, 5-(3-(3-cyclopentyl-2-oxoimidazolin-1-yl)piperidin-1-yl)-3-((4-(1-(1-(2-(2,6-dioxopiperidin-3-yl)-1-oxo-1,2-dihydroisoquinolin-6-yl)azetidin-3-yl)-4-methylpiperidin-4-yl)phenyl)amino)pyrazin-2-carboxamide] | > 1
10 | Cn1c(=O)n(C2CCCN(c3cnc(C(N)=O)c(Nc4ccc(C5(C)CCN(C6CN(c7ccc8c(c7)C(=O)N(C7CCC(=O)NC7=O)C8=O)C6)CC5)cc4)n3)C2)c2ccccc21 (centres unmarked) [Compound 025, 3-((4-(1-(1-(2-(2,6-dioxopiperidin-3-yl)-1,3-dioxoisoindol-5-yl)azetidin-3-yl)-4-methylpiperidin-4-yl)phenyl)amino)-5-(3-(3-methyl-2-oxo-2,3-dihydro-1H-benzo[d]imidazol-1-yl)piperidin-1-yl)pyrazin-2-carboxamide] | < 1
11 | CC1(c2ccc(Nc3nc(N4CCCC(n5cc6ccccn6c5=O)C4)cnc3C(N)=O)cc2)CCN(C2CN(c3ccc4c(c3)C(=O)N(C3CCC(=O)NC3=O)C4=O)C2)CC1 (centres unmarked) [Compound 026, 3-((4-(1-(1-(2-(2,6-dioxopiperidin-3-yl)-1,3-dioxoisoindolin-5-yl)azetidin-3-yl)-4-methylpiperidin-4-yl)phenyl)amino)-5-(3-(3-oxoimidazo[1,5-a]pyridin-2(3H)-yl)piperidin-1-yl)pyrazin-2-carboxamide] | > 1
12 | NC(=O)c1ncc(N2CCCC(N3CCN(C4CCCC4)C3=O)C2)nc1Nc1ccc(C2CCN(C3CN(c4ccc5c(c4)C(=O)N(C4CCC(=O)NC4=O)C5=O)C3)CC2)cc1 (centres unmarked) [Compound 027, 5-(3-(3-cyclopentyl-2-oxyimidazolin-1-yl)piperidin-1-yl)-3-((4-(1-(1-(2-(2,6-dioxopiperidin-3-yl)-1,3-dioxoisoindol-5-yl)azetidin-3-yl)piperidin-4-yl)phenyl)amino) pyrazin-2-carboxamide] | > 1
13 | NC(=O)c1ncc(N2CCCC(N3CCN(C4CCCC4)C3=O)C2)nc1Nc1ccc(C(=O)C2CCN(CC3CCN(c4ccc5c(c4)C(=O)N(C4CCC(=O)NC4=O)C5=O)CC3)CC2)cc1 (centres unmarked) [Compound 028, 5-(3-(3-cyclopentyl-2-oxoimidazolin-1-yl)piperidin-1-yl)-3-((4-(1-((1-(2-(2,6-dioxopiperidin-3-yl)-1,3-dioxoisoindolin-5-yl)piperidin-4-yl)methyl)piperidin-4-formyl)phenyl)amino)pyrazin-2-carboxamide] | > 1
14 | NC(=O)c1ncc(N2CCCC(N3CCN(C4CCCC4)C3=O)C2)nc1Nc1ccc(N2CCC(C#CCN3CCN(c4ccc5c(c4)C(=O)N(C4CCC(=O)NC4=O)C5=O)CC3)CC2)cc1 (centres unmarked) [Compound 029, 5-(3-(3-cyclopentyl-2-oxoimidazolin-1-yl)piperidin-1-yl)-3-((4-(4-(3-(4-(2-(2,6-dioxopiperidin-3-yl)-1,3-dioxoisoindolin-5-yl)piperazin-1-yl)propan-1-yne-1-yl)piperidin-1-yl)phenyl)amino)pyrazin-2-carboxamide] | < 1
15 | NC(=O)c1ncc(N2CCCC(N3CCN(C4CCCC4)C3=O)C2)nc1Nc1ccc2c(c1)CCN(CC1CCN(c3ccc4c(c3)C(=O)N(C3CCC(=O)NC3=O)C4=O)CC1)C2 (centres unmarked) [Compound 030, 5-(3-(3-cyclopentyl-2-oxoimidazolin-1-yl)piperidin-1-yl)-3-((2-((1-(2-(2,6-dioxopiperidin-3-yl)-1,3-dioxoisoindol-5-yl)piperidin-4-yl)methyl)-1,2,3,4-tetrahydroisoquinolin-6-yl)amino)pyrazin-2-carboxamide] | < 1
16 | NC(=O)c1ncc(N2CCCC(N3CCN(C4COC4)C3=O)C2)nc1Nc1ccc2c(c1)CCN(CC1CCN(c3ccc4c(c3)C(=O)N(C3CCC(=O)NC3=O)C4=O)CC1)C2 (centres unmarked) [Compound 031, 3-((2-((1-(2-(2,6-dioxopiperidin-3-yl)-1,3-dioxoisoindol-5-yl)piperidin-4-yl)methyl)-1,2,3,4-tetrahydroisoquinolin-6-yl)amino)-5-(3-(3-(oxetan-3-yl)-2-oxoimidazolin-1-yl)piperidin-1-yl)pyrazin-2-carboxamide] | < 1
17 | NC(=O)c1ncc(N2CCCC(N3CCN(C4COC4)C3=O)C2)nc1Nc1ccc2c(c1)CCN(CC1CN(c3ccc4c(c3)C(=O)N(C3CCC(=O)NC3=O)C4=O)C1)C2 (centres unmarked) [Compound 032, 3-((2-((1-(2-(2,6-dioxopiperidin-3-yl)-1,3-dioxoisoindol-5-yl)azetidine-3-yl)methyl)-1,2,3,4-tetrahydroisoquinolin-6-yl)amino)-5-(3-(3-(oxetan-3-yl)-2-oxyimidazolin-1-yl)piperidin-1-yl)pyrazin-2-carboxamide] | < 1
18 | NC(=O)c1ncc(N2CCCC(N3CCN(C4CCCC4)C3=O)C2)nc1Nc1ccc2c(c1)CCN(CC1CN(c3ccc4c(c3)C(=O)N(C3CCC(=O)NC3=O)C4=O)C1)C2 (centres unmarked) [Compound 033, 5-(3-(3-cyclopentyl-2-oxoimidazolin-1-yl)piperidin-1-yl)-3-((2-((1-(2-(2,6-dioxopiperidin-3-yl)-1,3-dioxoisoindol-5-yl)azetidin-3-yl)methyl)-1,2,3,4-tetrahydroisoquinolin-6-yl)amino)pyrazin-2-carboxamide] | < 1
19 | CC1(c2ccc(Nc3nc(N4CCCC(N5CCN(C6CCCC6)C5=O)C4)cnc3C(N)=O)cc2)CCN(CC2CCN(c3ccc4c(c3)C(=O)N(C3CCC(=O)NC3=O)C4=O)C2)CC1 (centres unmarked) [Compound 034, 5-(3-(3-cyclopentyl-2-oxoimidazolin-1-yl)piperidin-1-yl)-3-((4-(1-((1-(2-(2,6-dioxopiperidin-3-yl)-1,3-dioxoisoindolin-5-yl)pyrrolidin-3-yl)methyl)-4-methylpiperidin-4-yl)phenyl)amino)pyrazin-2-carboxamide] | < 1
20 | CN1CCN(C2CCCN(c3nnc(C(N)=O)c(Nc4ccc(C5(C)CCN(CC6CCN(c7ccc8c(c7)C(=O)N(C7CCC(=O)NC7=O)C8=O)C6)CC5)cc4)n3)C2)C1=O (centres unmarked) [Compound 035, 5-((4-(1-((1-(2-(2,6-dioxopiperidin-3-yl)-1,3-dioxoisoindolin-5-yl)pyrrolidin-3-yl)methyl)-4-methylpiperidin-4-yl)phenyl)amino)-3-(3-(3-methyl-2-oxoimidazolin-1-yl)piperidin-1-yl)-1,2,4-triazin-6-carboxamide] | < 1
